The NIST ThermoML archive (doi:10.1021/acs.jced.9b00306)
Numbers after ± are expanded uncertainties.

Conditions: Liquid, Ebulliometric method (Recirculating still)

## OCCCCCCO [1,6-hexanediol]
456.93 K
  vapor or sublimation pressure: 10 ± 1 kPa
474.79 K
  vapor or sublimation pressure: 20 ± 1 kPa
525.1 K
  vapor or sublimation pressure: 99 ± 1 kPa

## COC(=O)CCCCC(=O)OC [dimethyl 1,6-hexanedioate]
424.91 K
  vapor or sublimation pressure: 7.79 ± 0.51 kPa
431.2 K
  vapor or sublimation pressure: 10 ± 1 kPa
441.21 K
  vapor or sublimation pressure: 14.56 ± 0.52 kPa
450.08 K
  vapor or sublimation pressure: 20 ± 1 kPa
460.47 K
  vapor or sublimation pressure: 28.55 ± 0.59 kPa
474.33 K
  vapor or sublimation pressure: 44.63 ± 0.63 kPa
480.72 K
  vapor or sublimation pressure: 54.37 ± 0.72 kPa
488.62 K
  vapor or sublimation pressure: 68.77 ± 0.79 kPa
496.14 K
  vapor or sublimation pressure: 85.45 ± 0.89 kPa
501 K
  vapor or sublimation pressure: 99 ± 1 kPa
504.86 K
  vapor or sublimation pressure: 108.77 ± 1 kPa
512 K
  vapor or sublimation pressure: 131.95 ± 1.2 kPa
518.78 K
  vapor or sublimation pressure: 157.68 ± 1.3 kPa
523.92 K
  vapor or sublimation pressure: 179.21 ± 1.5 kPa
531.44 K
  vapor or sublimation pressure: 216.3 ± 1.6 kPa

## CO [methanol]
337.69 K
  vapor or sublimation pressure: 101.3 ± 1.6 kPa

## O [water]
373.15 K
  vapor or sublimation pressure: 101.3 ± 1.6 kPa
